{"source": "patent US9249157B2", "about": "“Tricyclic heterocycle compounds” (BRISTOL-MYERS SQUIBB COMPANY, priority 2012, dated 2016)", "key": {"human tumor xenografts": {"test_system": "human tumor xenografts", "assay": "Human Tumor Xenograft Models in Mice (tumor type not stated)", "format": "in vivo", "conditions": "for antitumor activity with oral administration (PO): Human Tumor Xenograft Models in mice", "source_text": "Human Tumor Xenograft Models in Mice\nAll rodents were obtained from Harlan Sprague Dawley Co. (Indianapolis, Ind.), and maintained in an ammonia-free environment in a defined and pathogen—free colony. All mice were quarantined approximately 1 week prior to their use for tumor propagation and drug efficacy testing. Mice were fed food and water ad libitum. The animal care program of Bristol-Myers Squibb Pharmaceutical Research Institute is fully accredited by the American Association for Accreditation of Laboratory Animal Care (AAALAC). All experiments were performed in accordance with Bristol-Myers Squibb (BMS) animal test methods and guidelines.\nTumor xenografts were grown and maintained subcutaneously (SC) in immunocompromized balb/c nu/nu nude or NOD-SCID mice (Harlan Sprague Dawley). Tumors were propagated as subcutaneous transplants in the appropriate mouse strain (Table 10) using tumor fragments obtained from donor mice.\nThe required numbers of animals needed to detect a meaningful response were pooled at the start of the experiment and each was given a subcutaneous implant of a tumor fragment (˜20 mg) with a 13-gauge trocar. Tumors were allowed to grow to the pre-determined size window (tumors outside the range were excluded) and animals were evenly distributed to various treatment and control groups. […]\nTumor response was determined by measurement of tumors with a caliper twice a week, until the tumors reached a predetermined “target” size of 0.5 gm or 1 gm depending on the tumor type. […]\nTumor response criteria are expressed in terms of tumor growth inhibition (% TGI). […] For this purpose, the tumor weight of a group is expressed as medium tumor weight (MTW).\nWhenever possible, antitumor activity was determined at a range of dose levels up to the maximum tolerated dose (MTD) which is defined as the dose level immediately below which excessive toxicity (i.e., more than one death) occurred. When death occurred, the day of death was recorded. […]"}, "human Notch 3": {"test_system": "human Notch 3", "assay": "Notch-CBF1 Transactivation Assay (Notch 3)", "format": "cell-based", "conditions": "HeLa cells transfected with truncated Notch 3 and CBF1 luciferase reporter; 18 hours incubation", "source_text": "(§1) Notch-CBF1 Transactivation Assay\n(§2) The Notch-CBF1 (C-promoter binding factor I) cell based transactivation assay is based on the ability of the released Notch intracellular domain fragments (NICDs) to function as transcription factors in conjunction with CBF1 and other nuclear factors. Luciferase assays were used to measure the antagonism of Notch-CBF1 transcriptional activity. HeLa cervical cancer cells are transiently co-transfected with pCDNA3.1/Hygro plasmids containing truncated Notch 1, Notch 2, Notch 3, or Notch 4 receptors and a PGL3 luciferase reporter vector containing 4 copies of CBF1 binding site. The cells were then tested for Notch-CBF1 activity in the absence or presence of test compounds. HeLa cells, maintained in DMEM (high glucose with HEPES), 1× glutamine/penicillin/streptomycin and 10% Fetal Bovine serum, were transiently transfected in a T175 Flask (4.5×10^6 cells/flask) using the Monster Transfection Kit (Minis #MIR2906) according to manufacturers specifications. Table 1 denotes respective DNA quantity for the transfections.\n(§3) Six hours post-transfection, cells were trypsinized and plated into a 384-well black Poly-D-lysine coated tissue culture plate at a density of 5×10^3 cells/well in 95 μL assay media (DMEM (high glucose with HEPES), 1× glutamine/penicillin/streptomycin, 0.0125% BSA, 1× non-essential amino acids). Assay media (5 μL) containing test compounds in final concentrations ranging from 5 μM to 8.4×10^−5 μM (3 fold serial dilutions) were added to the cells and the cell plates were then incubated for 18 hours at 37° C. and 5% CO2. Control wells contained DMSO vehicle (total counts) or 0.5 μM of an in-house small molecule inhibitor (background counts). Duplicates were used for each sample. Luciferase activity was measured after a 20-minute incubation with 50 μl STEADY-GLO® luciferase reagents according to manufacturer's specifications (Promega, Cat. #E2550) and analyzed by Envision plate reader (PerkinElmer, Boston, Mass.).\n(§4) The antagonist effect of compounds was expressed as 100×[1−(average sample−average background)/(average total−average background)] where sample is the luciferase activity in the presence of test compound, background is equal to the luciferase activity in the presence of the small molecule inhibitor control and the total is signal induced in DMSO wells."}, "human Notch 1": {"test_system": "human Notch 1", "assay": "Notch-CBF1 Transactivation Assay (Notch 1)", "format": "cell-based", "conditions": "HeLa cells transfected with truncated Notch 1 and CBF1 luciferase reporter; 18 hours incubation", "source_text": "as §1, §2, §3, §4"}}, "data": [{"smiles": "Cc1nocc1[C@H](C(N)=O)[C@@H](CCC(F)(F)F)C(=O)N[C@H]1N=C(c2ccccc2)c2cccc3c2N(CC(F)(F)CO3)C1=O", "note": "[Example 1, (2R,3R)—N-((7S)-3,3-Difluoro-6-oxo-9-phenyl-3,4,6,7-tetrahydro-2H-[1,4]diazepino[1,7,6-ef][1,5]benzoxazepin-7-yl)-3-(3-methyl-4-isoxazolyl)-2-(3,3,3-trifluoropropyl)succinamide]", "values": [{"measurement": "antitumor activity with oral administration (PO)", "setting": "human tumor xenografts", "result": "showed antitumor activity"}, {"measurement": "antitumor activity, intravenous route (IV)", "setting": "human tumor xenografts; human tumor xenografts implanted in mice, IV", "result": "exhibited antitumor activity"}]}, {"smiles": "NC(=O)[C@@H](CC1CC1)[C@@H](CCC(F)(F)F)C(=O)N[C@H]1N=C(c2ccccc2)c2cccc3c2N(CC(F)(F)CO3)C1=O", "note": "[Example 2, (2R,3S)-3-(Cyclopropylmethyl)-N-((7S)-3,3-difluoro-6-oxo-9-phenyl-3,4,6,7-tetrahydro-2H-[1,4]diazepino[1,7,6-ef][1,5]benzoxazepin-7-yl)-2-(3,3,3-trifluoropropyl)succinamide]", "values": [{"measurement": "antitumor activity with oral administration (PO)", "setting": "human tumor xenografts", "result": "showed antitumor activity"}]}, {"smiles": "NC(=O)[C@@H](CC1CC1)[C@@H](CCC(F)(F)F)C(=O)N[C@H]1N=C(c2ccccc2)c2cccc3c2N(CCO3)C1=O", "note": "[Example 6, (2R,3S)-3-(Cyclopropylmethyl)-N-((6S)-5-oxo-8-phenyl-2,3,5,6-tetrahydro[1,4]oxazino[2,3,4-jk][1,4]benzodiazepin-6-yl)-2-(3,3,3-trifluoropropyl)succinamide]", "values": [{"measurement": "IC50", "setting": "human Notch 3", "result": 14.8, "unit": "nM"}]}, {"smiles": "NC(=O)[C@@H](CCCF)[C@@H](CCC(F)(F)F)C(=O)N[C@H]1N=C(c2ccccc2)c2cccc3c2N(CCO3)C1=O", "note": "[Example 8, (2R,3S)-3-(3-Fluoropropyl)-N-((6S)-5-oxo-8-phenyl-2,3,5,6-tetrahydro[1,4]oxazino[2,3,4-jk][1,4]benzodiazepin-6-yl)-2-(3,3,3-trifluoropropyl)succinamide]", "values": [{"measurement": "IC50", "setting": "human Notch 1", "result": 14.8, "unit": "nM"}, {"measurement": "IC50", "setting": "human Notch 3", "result": 28.1, "unit": "nM"}]}, {"smiles": "Cc1cccc(C2=N[C@H](NC(=O)[C@H](CCC(F)(F)F)[C@H](CCC(F)(F)F)C(N)=O)C(=O)N3CCOc4cccc2c43)c1", "note": "[Example 11, (2R,3S)—N-((6S)-8-(3-Methylphenyl)-5-oxo-2,3,5,6-tetrahydro[1,4]oxazino[2,3,4-jk][1,4]benzodiazepin-6-yl)-2,3-bis(3,3,3-trifluoropropyl)succinamide]", "values": [{"measurement": "IC50", "setting": "human Notch 3", "result": 14.7, "unit": "nM"}]}, {"smiles": "Cc1cccc(C2=N[C@H](NC(=O)[C@H](CCC(F)(F)F)[C@@H](C(N)=O)c3ccccc3)C(=O)N3CCOc4cccc2c43)c1", "note": "[Example 13, (2R,3R)—N-((6S)-8-(3-Methylphenyl)-5-oxo-2,3,5,6-tetrahydro[1,4]oxazino[2,3,4-jk][1,4]benzodiazepin-6-yl)-3-phenyl-2-(3,3,3-trifluoropropyl)succinamide]", "values": [{"measurement": "IC50", "setting": "human Notch 1", "result": 14.8, "unit": "nM"}]}, {"smiles": "CCC[C@H](C(N)=O)[C@@H](CCC(F)(F)F)C(=O)N[C@H]1N=C(c2cccc(Cl)c2)c2cccc3c2N(CCO3)C1=O", "note": "[Example 15, (2R,3S)—N-((6S)-8-(3-Chlorophenyl)-5-oxo-2,3,5,6-tetrahydro[1,4]oxazino[2,3,4-jk][1,4]benzodiazepin-6-yl)-3-propyl-2-(3,3,3-trifluoropropyl)succinamide]", "values": [{"measurement": "IC50", "setting": "human Notch 1", "result": 16.9, "unit": "nM"}, {"measurement": "IC50", "setting": "human Notch 3", "result": 28.3, "unit": "nM"}]}, {"smiles": "CCC[C@@H](C(=O)N[C@H]1N=C(c2ccccc2)c2cccc3c2N(CCO3)C1=O)[C@H](CCC(F)(F)F)C(N)=O", "note": "[Example 17, (2R,3S)—N-((6S)-5-Oxo-8-phenyl-2,3,5,6-tetrahydro[1,4]oxazino[2,3,4-jk][1,4]benzodiazepin-6-yl)-2-propyl-3-(3,3,3-trifluoropropyl)succinamide]", "values": [{"measurement": "IC50", "setting": "human Notch 1", "result": 13.9, "unit": "nM"}, {"measurement": "IC50", "setting": "human Notch 3", "result": 20.1, "unit": "nM"}]}, {"smiles": "NC(=O)[C@@H](CC1CC1)[C@@H](CC1CC1)C(=O)N[C@H]1N=C(c2ccccc2)c2cccc3c2N(CCO3)C1=O", "note": "[Example 18, (2R,3S)-2,3-Bis(cyclopropylmethyl)-N-((6S)-5-oxo-8-phenyl-2,3,5,6-tetrahydro[1,4]oxazino[2,3,4-jk][1,4]benzodiazepin-6-yl)succinamide]", "values": [{"measurement": "IC50", "setting": "human Notch 1", "result": 21.9, "unit": "nM"}, {"measurement": "IC50", "setting": "human Notch 3", "result": 16.4, "unit": "nM"}]}, {"smiles": "NC(=O)[C@@H](CC1CC1)[C@@H](CCC(F)(F)F)C(=O)N[C@H]1N=C(c2ccccc2)c2cccc3c2N(CCCO3)C1=O", "note": "[Example 23, (2R,3S)-3-(Cyclopropylmethyl)-N-((7S)-6-oxo-9-phenyl-3,4,6,7-tetrahydro-2H-[1,4]diazepino[1,7,6-ef][1,5]benzoxazepin-7-yl)-2-(3,3,3-trifluoropropyl)succinamide]", "values": [{"measurement": "IC50", "setting": "human Notch 3", "result": 14.2, "unit": "nM"}]}, {"smiles": "Cc1nocc1[C@H](C(N)=O)[C@@H](CCC(F)(F)F)C(=O)N[C@H]1N=C(c2ccccc2)c2cccc3c2N(CCN3)C1=O", "note": "[Example 24, (2R,3R)-3-(3-Methyl-4-isoxazolyl)-N-((6S)-5-oxo-8-phenyl-2,3,5,6-tetrahydro-1H-[1,4]diazepino[1,7,6-de]quinoxalin-6-yl)-2-(3,3,3-trifluoropropyl)succinamide]", "values": [{"measurement": "IC50", "setting": "human Notch 1", "result": 16.9, "unit": "nM"}, {"measurement": "IC50", "setting": "human Notch 3", "result": 28.3, "unit": "nM"}]}, {"smiles": "CCC[C@H](C(N)=O)[C@@H](CCC(F)(F)F)C(=O)N[C@H]1N=C(c2ccccc2)c2cccc3c2N(CCN3)C1=O", "note": "[Example 25, (2R,3S)—N-((6S)-5-Oxo-8-phenyl-2,3,5,6-tetrahydro-1H-[1,4]diazepino[1,7,6-de]quinoxalin-6-yl)-3-propyl-2-(3,3,3-trifluoropropyl)succinamide]", "values": [{"measurement": "IC50", "setting": "human Notch 1", "result": 14.5, "unit": "nM"}, {"measurement": "IC50", "setting": "human Notch 3", "result": 16.9, "unit": "nM"}]}, {"smiles": "NC(=O)[C@@H](c1ccccc1)[C@@H](CCC(F)(F)F)C(=O)N[C@H]1N=C(c2ccccc2)c2cccc3c2N(CCN3)C1=O", "note": "[Example 27, (2R,3R)—N-((6S)-5-Oxo-8-phenyl-2,3,5,6-tetrahydro-1H-[1,4]diazepino[1,7,6-de]quinoxalin-6-yl)-3-phenyl-2-(3,3,3-trifluoropropyl)succinamide]", "values": [{"measurement": "IC50", "setting": "human Notch 1", "result": 15.1, "unit": "nM"}]}]}
